# Laboratory results from patent publication US8901171B2, “Compounds for suppressing a peripheral nerve disorder induced by an anti-cancer agent” (Takeda Pharmaceutical Company Limited, priority 2010, dated 2014).
# Tests used:
# Assay type in all cases: in vivo
# [1] = tested on: Mice (C57BL/6N, male, 8-week-old), peripheral nerve disorders induced by various anti-cancer agents; assay: Experimental Example 2: pain threshold of mice given various anti-cancer agents, balance type pressing device (Ugo Basile); conditions: 1 week after
# Experimental: Mice (C57BL/6N, male, 8-week-old) were divided into Group A, Group B, and Group C. As Group A, non-treated animals were used. […] Group C was intravenously administered with compound 72 (3 mg/kg body weight) of Reference Example A dissolved in an emulsion containing soybean oil, egg-yolk lecithin, glycerol and the like immediately before intraperitoneal administration of various anti-cancer agents. Thus, neither an enumerated anti- cancer agent nor Compound 72 was administered to Group A; an anti-cancer agent but not Compound 72 was administered to Groups B; and both an anti-cancer agent and Compound 72 were administered to Groups C. Pain threshold of each group was measured 1 week after the administration of the anti-cancer agent. Pain threshold is a weighed value (gram) at the time when a false escape response is observed by pressurizing the plantar part of the right hindlimb using a balance type pressing device (Ugo Basile). The values in the Table show mean ±standard error of the weighed values, and n is the number of the mice in each group.
# [2] = tested on: Mice (C57BL/6N, male, 8-week-old), peripheral nerve disorders induced by various anti-cancer agents; assay: Experimental Example 4: pain threshold of mice given various anti-cancer agents, compound 9′, balance type pressing device (Ugo Basile)
# Experimental: Group D was intravenously administered with compound 9′ (1 mg/kg body weight) of Reference Example B dissolved in solution of N methyl-D(−)-glucamine (0.01 mol/L) immediately before intraperitoneal administration of various anti-cancer agents. Pain threshold of each group was measured 3 week after the administration for paclitaxel and 1 week after the administration for the anti-cancer agents other than paclitaxel. Pain threshold is a weighed value (gram) at the time when a false escape response is observed by pressurizing the plantar part of the right hindlimb using a balance type pressing device (Ugo Basile). The values in the Table show mean±standard error of the weighed values, and n is the number of the mice in each group.
# [3] = tested on: Rat (Wistar, male, 5-week-old), peripheral nerve disorders induced by paclitaxel; assay: Experimental Example 3: pain threshold of paclitaxel-treated rats, Electronic von Frey
# Experimental: Rat (Wistar, male, 5-week-old) were divided into Group A, Group B, and Group C. As Group A, non-treated animals were used. To Group B and Group C, paclitaxel is diluted with saline to a given concentration, and intraperitoneally administered at 6 mg/kg body weight for a total of 3 times at intervals of 1 to 2 days. Group C was intravenously administered with compound 72 (10 mg/kg body weight) of Reference Example A dissolved in an emulsion containing soybean oil, egg-yolk lecithin, glycerol and the like immediately before intraperitoneal administration of paclitaxel (total 3 times). Thus, neither paclitaxel nor Compound 72 was administered to Group A; paclitaxel but not Compound 72 was administered to Group B; and both paclitaxel and Compound 72 were administered to Group C. Pain threshold of each group was measured 2 weeks after first paclitaxel administration. Pain threshold is a weighed value (gram) at the time when an avoidance response is observed by pressurizing the plantar part of the right hindlimb using an Electronic von Frey (IITC Life Science). The values in the Table show mean ±standard error of the weighed values, and n is the number of the rats in each group.
# [4] = tested on: Mice (C57BL/6N, male, 7-week-old), peripheral nerve disorders induced by paclitaxel; assay: Experimental Example 1: pain threshold of paclitaxel-treated mice, balance type pressing device (Ugo Basile); conditions: mean ± standard error
# Experimental: Mice (C57BL/6N, male, 7-week-old) were divided into Group A (6 mice), Group B (6 mice), and Group C (6 mice). Group B and Group C were intraperitoneally administered with paclitaxel (dissolved in ethanol:Cremophor EL:saline=0.5:0.5:9; 4 mg/kg body weight). As Group A, non-treated animals were used. Group C was intravenously administered with compound 72 (10 mg/kg body weight) of Reference Example A dissolved in an emulsion containing soybean oil, egg-yolk lecithin, glycerol and the like immediately before and 1 and 2 weeks after intraperitoneal administration of paclitaxel (total 3 times). Thus, neither paclitaxel nor Compound 72 was administered to Group A; paclitaxel but not Compound 72 was administered to Group B; and both paclitaxel and Compound 72 were administered to Group C. Pain threshold of each group was measured 3 weeks after paclitaxel administration to Group B and Group C. Pain threshold is a weighed value (gram) at the time when a false escape response is observed by pressurizing the plantar part of the right hindlimb using a balance type pressing device (Ugo Basile). The values in the Table show mean ±standard error of the weighed values.
compound,measurement,setting,value
"N.N.O=C([O-])C1(C(=O)[O-])CCC1.[Pt+2] [Carboplatin, carboplatin, reference compound]",Pain threshold,"[1]; Group B: anti-cancer agent alone i.p. (docetaxel 3, vincristine 0.1, cisplatin 3, carboplatin 40, bortezomib 0.4 mg/kg), non-treated Group A 365.0 ± 17.8",110.0 ± 6.8 g
same,Pain threshold,"[2]; Group B: anti-cancer agent alone i.p. (docetaxel 3, vincristine 0.1, cisplatin 3, carboplatin 40, bortezomib 0.4 mg/kg), 1 week after",110.0 ± 6.8 g
"CCOC(=O)C1=CCOC[C@H]1S(=O)(=O)Nc1ccc(F)cc1Cl [compound 9′, ethyl (3S)-3-[N-(2-chloro-4-fluorophenyl)sulfamoyl]-3,6-dihydro-2H-pyran-4-carboxylate]",Pain threshold,"[2]; Group D: bortezomib 0.4 mg/kg i.p. + compound 9′ 1 mg/kg i.v. immediately before, 1 week after",256.7 ± 26.5 g
same,Pain threshold,"[2]; Group D: carboplatin 40 mg/kg i.p. + compound 9′ 1 mg/kg i.v. immediately before, 1 week after",176.7 ± 16.7 g
same,Pain threshold,"[2]; Group D: cisplatin 3 mg/kg i.p. + compound 9′ 1 mg/kg i.v. immediately before, 1 week after",193.3 ± 26.2 g
same,Pain threshold,"[2]; Group D: docetaxel 3 mg/kg i.p. + compound 9′ 1 mg/kg i.v. immediately before, 1 week after",276.7 ± 38.1 g
same,Pain threshold,"[2]; Group D: paclitaxel 10 mg/kg i.p. + compound 9′ 1 mg/kg i.v. immediately before, 3 week after, mean ± standard error",406.7 ± 61.2 g
same,Pain threshold,"[2]; Group D: vincristine 0.1 mg/kg i.p. + compound 9′ 1 mg/kg i.v. immediately before, 1 week after",306.7 ± 73.5 g
"CCOC(=O)C1=CCCC[C@H]1S(=O)(=O)Nc1ccc(F)cc1Cl [compound 72, ethyl (6R)-6-[N-(2-chloro-4-fluorophenyl)sulfamoyl]-1-cyclohexene-1-carboxylate]",Pain threshold,"[3]; Group C: paclitaxel 6 mg/kg i.p. 3 times + compound 72 10 mg/kg i.v. immediately before each, 2 weeks after first paclitaxel, mean ± standard error",24.9 ± 0.9 g
same,Pain threshold,"[1]; Group C: bortezomib 0.4 mg/kg i.p. + compound 72 3 mg/kg i.v. immediately before, mean ± standard error",306.7 ± 24.0 g
same,Pain threshold,"[1]; Group C: carboplatin 40 mg/kg i.p. + compound 72 3 mg/kg i.v. immediately before, mean ± standard error",213.3 ± 13.3 g
same,Pain threshold,"[1]; Group C: cisplatin 3 mg/kg i.p. + compound 72 3 mg/kg i.v. immediately before, mean ± standard error",166.7 ± 18.5 g
same,Pain threshold,"[1]; Group C: docetaxel 3 mg/kg i.p. + compound 72 3 mg/kg i.v. immediately before, mean ± standard error",276.7 ± 17.4 g
same,Pain threshold,"[1]; Group C: vincristine 0.1 mg/kg i.p. + compound 72 3 mg/kg i.v. immediately before, mean ± standard error",289.2 ± 44.6 g
same,Pain threshold,"[4]; Group C: paclitaxel 4 mg/kg i.p. + compound 72 10 mg/kg i.v. immediately before and 1 and 2 weeks after (3 times), measured 3 weeks after paclitaxel",441.7 ± 28.6 g
"CC(=O)O[C@H]1C(=O)[C@@]2(C)[C@H]([C@H](OC(=O)c3ccccc3)[C@]3(O)C[C@H](OC(=O)[C@H](O)[C@@H](NC(=O)c4ccccc4)c4ccccc4)C(C)=C1C3(C)C)[C@]1(OC(C)=O)CO[C@@H]1C[C@@H]2O [paclitaxel, reference compound]",Pain threshold,"[3]; Group B: paclitaxel 6 mg/kg i.p. 3 times alone, 2 weeks after first administration, non-treated Group A 25.8 ± 0.7",15.4 ± 2.6 g
same,Pain threshold,"[4]; Group B: paclitaxel 4 mg/kg i.p. alone, measured 3 weeks after, non-treated Group A 443.3 ± 32.8",185.0 ± 19.3 g
